Drawing on patent US9593149B2, “Amylin and calcitonin receptor agonist” (Novo Nordisk A/S, priority 2014, dated 2017), this text covers EC50 and IC50 for three molecules.

Assay [1] addresses T1, human amylin 3(a) receptor (human calcitonin receptor + RAMP-3), BHK570 cells (Homo sapiens, UniProt O60896+P30988).
T1 construct: host or cells: BHK570
As to the kind of experiment: Assay (II)b functional CRE-luciferase assay without albumin, human amylin receptor. The assay is classed as cell-based. The following applies: Tested without HSA; read-out: hAmylin-R funct. EC50. The essentials:
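Agonism measured as CRE-driven luciferase luminescence after 3 h sample exposure at 37 °C, without albumin (0.1% ovalbumin, Hepes pH 7.4 medium). Reporter cells: BHK570 carrying human calcitonin receptor, co-transfected with RAMP-3 to form the amylin 3(a) receptor.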

Assay [2] has as its target T2, human amylin receptor (Amylin 3(a)/CRE-luc cell membranes) (Homo sapiens, UniProt O60896+P30988).
T2 construct: host or cells: BHK570
T2 sequence (P30988 25-474): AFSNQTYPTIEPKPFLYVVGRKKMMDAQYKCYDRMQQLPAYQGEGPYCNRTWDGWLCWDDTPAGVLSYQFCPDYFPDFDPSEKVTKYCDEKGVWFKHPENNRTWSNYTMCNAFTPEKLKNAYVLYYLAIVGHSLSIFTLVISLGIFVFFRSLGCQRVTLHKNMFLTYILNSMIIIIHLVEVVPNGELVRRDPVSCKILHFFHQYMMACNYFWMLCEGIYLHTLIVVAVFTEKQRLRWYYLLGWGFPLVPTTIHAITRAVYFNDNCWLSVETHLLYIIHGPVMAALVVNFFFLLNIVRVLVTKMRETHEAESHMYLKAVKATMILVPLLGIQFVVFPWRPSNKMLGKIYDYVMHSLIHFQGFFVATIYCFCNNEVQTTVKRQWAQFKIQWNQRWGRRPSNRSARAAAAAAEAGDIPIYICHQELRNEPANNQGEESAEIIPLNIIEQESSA
T2 sequence (O60896 24-148 partner): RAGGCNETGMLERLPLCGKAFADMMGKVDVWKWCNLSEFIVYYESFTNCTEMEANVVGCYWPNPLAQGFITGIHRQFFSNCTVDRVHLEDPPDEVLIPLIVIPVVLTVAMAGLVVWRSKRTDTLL
Briefly: Assay (V) binding to the human amylin receptor (membrane, SPA). The following applies: 125I-rat amylin, read-out: hAmylin-R binding IC50. On the procedure:
The binding assay was performed using scintillation proximity assay (SPA) beads (RPNQ0001) from PerkinElmer and cell membranes from the Amylin 3(a)/CRE-luc cells (as described in Assay (II)) were used. Membranes were prepared in the following way; the cells were rinsed with PBS and incubated with Versene for approximately 5 min before harvesting. The cells were flushed with PBS and the cell-suspension was centrifuged for 5 min at 1000 rpm. Cells were homogenized (ultrathurrax) in a buffer containing 20 mM Na-HEPES and 10 mM EDTA (pH 7.4) and centrifuged at 20.000 rpm for 15 min. The resulting pellet was resuspended, homogenized and centrifuged (20.000 rpm, 15 min) in a buffer containing 20 mM Na-HEPES and 0.1 mM EDTA (pH 7.4, buffer 2). The resulting pellet was resuspended in buffer 2 and protein concentration was tested (BCA protein Assay, Pierce). The homogenate was kept cold during the whole procedure. The membranes were kept at −80° C. until use. The assay was performed in a 384 well Optiplate (PerkinElmer) in a total volume of 40 ul. Membranes were mixed with SPA beads. Final concentration of membranes 35 ng/μL final and SPA beads was 0.05 mg/well. […] Samples were analyzed on TopCounter™ (Packard). The IC50 was calculated using (one site binding competition analysis) GraphPad Prism5 as a measure of receptor affinity.

Numbered stars: 1 amine (or outer) side, 2 acyl side, 3 side chain; on linkers, the order of the positions; unused ones are H or OH. Side chains are listed from the residue outwards. Peptide text beside a SMILES is read from it. * marks the point of attachment. C20 diacid = O=C(O)CCCCCCCCCCCCCCCCCCC(=O)*; C18 diacid = O=C(O)CCCCCCCCCCCCCCCCC(=O)*; γGlu = O=C(O)[C@H](CCC(=O)[*:2])N[*:1]

The term EC50 denotes the concentration that produces a half-maximal response. As to `CC(C)C[C@H](NC(=O)[C@H](C)NC(=O)[C@H](C)NC(=O)[C@@H](NC(=O)[C@H](CO)NC(=O)[C@H](CC(C)C)NC(=O)[C@H](CCC(=O)O)NC(=O)[C@H](CO)NC(=O)[C@H](C)NC(=O)[C@H](C)NC(=O)CC[C@H](NC(=O)CCCCCCCCCCCCCCCCCCC(=O)O)C(=O)O)[C@@H](C)O)C(=O)NCC(=O)N[C@@H](CCCNC(=N)N)C(=O)N[C@@H](CC(C)C)C(=O)N[C@@H](CO)C(=O)N[C@@H](C)C(=O)N[C@@H](CCC(=O)O)C(=O)N[C@@H](CC(C)C)C(=O)N[C@@H](Cc1c[nH]cn1)C(=O)N[C@@H](CCC(=O)O)C(=O)N[C@@H](CC(C)C)C(=O)N[C@@H](C)C(=O)N[C@H](C(=O)N[C@@H](Cc1ccc(O)cc1)C(=O)N1CCC[C@H]1C(=O)N[C@@H](CCCNC(=N)N)C(=O)N[C@H](C(=O)N[C@@H](CCC(=O)O)C(=O)N[C@H](C(=O)NCC(=O)N[C@@H](CO)C(=O)NCC(=O)N[C@@H](CO)C(=O)N1CCC[C@H]1C(N)=O)[C@@H](C)O)[C@@H](C)O)[C@@H](C)O` [compound 57, [N-terminal(C20 diacid-gGlu), 1A, 23Y, 30S, 31G]mimylin] ({C20 diacid-γGlu}-AASELSTAALGRLSAELHELATYPRTETGSGSP-NH2), the EC50 in assay [1] was determined as 0.02 nM.

One may read the IC50 as the concentration at which inhibition is half-maximal. On to `CC(=O)N[C@@H](C)C(=O)N[C@@H](CO)C(=O)N[C@@H](CCCCNC(=O)CC[C@H](NC(=O)CCCCCCCCCCCCCCCCCCC(=O)O)C(=O)O)C(=O)N[C@@H](CC(C)C)C(=O)N[C@@H](CO)C(=O)N[C@H](C(=O)N[C@@H](C)C(=O)N[C@@H](C)C(=O)N[C@@H](CC(C)C)C(=O)NCC(=O)N[C@@H](CCCNC(=N)N)C(=O)N[C@@H](CC(C)C)C(=O)N[C@@H](CO)C(=O)N[C@@H](C)C(=O)N[C@@H](CCC(=O)O)C(=O)N[C@@H](CC(C)C)C(=O)N[C@@H](Cc1c[nH]cn1)C(=O)N[C@@H](CCC(=O)O)C(=O)N[C@@H](CC(C)C)C(=O)N[C@@H](C)C(=O)N[C@H](C(=O)N[C@@H](CC(C)C)C(=O)N1CCC[C@H]1C(=O)N[C@@H](CCCNC(=N)N)C(=O)N[C@H](C(=O)N[C@@H](CCC(=O)O)C(=O)N[C@H](C(=O)NCC(=O)N[C@@H](CO)C(=O)NCC(=O)N[C@@H](CO)C(=O)N1CCC[C@H]1C(N)=O)[C@@H](C)O)[C@@H](C)O)[C@@H](C)O)[C@@H](C)O` [compound 68, [N-terminal(acetyl), des1, 4K(C20 diacid-gGlu), 30S, 31G]mimylin] (Ac-ASK([γGlu-C20 diacid])LSTAALGRLSAELHELATLPRTETGSGSP-NH2), for which the EC50 in assay [1] stood at 0.036 nM. Also, the IC50 in assay [2] is 0.05 nM.

Regarding `CC(C)C[C@H](NC(=O)[C@H](CCC(=O)O)NC(=O)[C@H](C)NC(=O)[C@@H](NC(=O)[C@H](CC(C)C)NC(=O)[C@H](CCCNC(=N)N)NC(=O)CNC(=O)[C@H](CC(C)C)NC(=O)[C@@H](NC(=O)[C@H](C)NC(=O)[C@@H](NC(=O)[C@@H](NC(=O)[C@H](CC(C)C)NC(=O)[C@H](CCC(=O)O)NC(=O)[C@H](CO)NC(=O)[C@H](C)NC(=O)CC[C@H](NC(=O)CCCCCCCCCCCCCCCCC(=O)O)C(=O)O)[C@@H](C)O)[C@@H](C)O)C(C)C)[C@@H](C)O)C(=O)N[C@@H](Cc1c[nH]cn1)C(=O)N[C@@H](CCC(=O)O)C(=O)N[C@@H](CC(C)C)C(=O)N[C@@H](CCC(=O)O)C(=O)N[C@H](C(=O)N[C@@H](CC(C)C)C(=O)N1CCC[C@H]1C(=O)N[C@@H](CCCNC(=N)N)C(=O)N[C@H](C(=O)N[C@@H](CCC(=O)O)C(=O)N[C@H](C(=O)NCC(=O)N[C@H](C(=O)NCC(=O)N[C@H](C(=O)N1CCC[C@H]1C(N)=O)[C@@H](C)O)[C@@H](C)O)[C@@H](C)O)[C@@H](C)O)[C@@H](C)O` [compound 105, [N-terminal(C18 diacid-gGlu), des1, 6T, 9V, 14T, 21E, 30T, 31G, 32T]mimylin] ({C18 diacid-γGlu}-ASELTTAVLGRLTAELHELETLPRTETGTGTP-NH2), in assay [2], the IC50 is 0.309 nM.
